Calls of active or inactive are those of the source. How the calls were made is not given here.
Test system: rodent lifetime carcinogenesis bioassay, tumor incidence TD50
Assay: chronic cancer bioassays in animals – CPDB, compiled studies (AID 1745844)

CC(=O)CN(N=O)C(N)=O
TD50 (hamster, strain Syrian Golden, females, by gavage, site: spleen, lesion: all vascular tumors, dosed 40 weeks, study length 55 weeks): 0.121 mg/kg/day | TD50 (hamster, strain Syrian Golden, males, by gavage, site: spleen, lesion: hemangiosarcoma, dosed 40 weeks, study length 75 weeks): 0.14 mg/kg/day | TD50 (rat, strain Fischer 344, females, by gavage, site: kidney, lesion: mesenchymal neoplasm, dosed 30 weeks, study length 104 weeks): 0.32 mg/kg/day | TD50 (rat, strain Fischer 344, females, by gavage, site: liver, lesion: one or several types, types not named, dosed 30 weeks, study length 104 weeks): 4.04 mg/kg/day | TD50 (rat, strain Fischer 344, males, by gavage, site: kidney, lesion: mesenchymal neoplasm, dosed 30 weeks, study length 104 weeks): 0.456 mg/kg/day

C=C1C/C(=C/C)C(=O)O[C@@H]2CCN3CC=C(COC(=O)[C@@]1(O)CO)[C@H]23
TD50 (mouse, strain B6C3F1, females, by gavage, site: all sites, lesion: hemangioma + hemangiosarcoma, dosed 105 weeks, study length 105 weeks): 10 mg/kg/day | TD50 (mouse, strain B6C3F1, females, by gavage, site: any site (literature study), lesion: several types, types named in the paper, dosed 105 weeks, study length 105 weeks): 0.691 mg/kg/day | TD50 (mouse, strain B6C3F1, females, by gavage, site: lung, lesion: alveolar/bronchiolar adenoma + alveolar/bronchiolar carcinoma, dosed 105 weeks, study length 105 weeks): 1.99 mg/kg/day | TD50 (mouse, strain B6C3F1, females, by gavage, site: lung, lesion: alveolar/bronchiolar adenoma, dosed 105 weeks, study length 105 weeks): 2.68 mg/kg/day | TD50 (mouse, strain B6C3F1, males, by gavage, site: all sites, lesion: hemangiosarcoma, dosed 104 weeks, study length 104 weeks): 1.63 mg/kg/day | TD50 (mouse, strain B6C3F1, males, by gavage, site: any site (literature study), lesion: several types, types named in the paper, dosed 104 weeks, study length 104 weeks): 1.09 mg/kg/day | TD50 (mouse, strain B6C3F1, males, by gavage, site: liver, lesion: hemangiosarcoma, dosed 104 weeks, study length 104 weeks): 1.96 mg/kg/day | TD50 (mouse, strain B6C3F1, males, by gavage, site: lung, lesion: alveolar/bronchiolar adenoma + alveolar/bronchiolar carcinoma, dosed 104 weeks, study length 104 weeks): 5.57 mg/kg/day | TD50 (rat, strain Fischer 344, females, by gavage, site: all sites + liver, lesion: mononuclear-cell leukemia + hemangiosarcoma + hepatocellular adenoma, dosed 102 weeks, study length 104 weeks): 0.143 mg/kg/day | TD50 (rat, strain Fischer 344, females, by gavage, site: all sites + liver, lesion: mononuclear-cell leukemia + hepatocellular adenoma, dosed 102 weeks, study length 104 weeks): 0.234 mg/kg/day | TD50 (rat, strain Fischer 344, females, by gavage, site: all sites, lesion: hemangiosarcoma, dosed 102 weeks, study length 104 weeks): 0.446 mg/kg/day | TD50 (rat, strain Fischer 344, females, by gavage, site: all sites, lesion: mononuclear-cell leukemia, dosed 102 weeks, study length 104 weeks): 0.293 mg/kg/day | TD50 (rat, strain Fischer 344, females, by gavage, site: any site (literature study), lesion: several types, types named in the paper, dosed 102 weeks, study length 104 weeks): 0.0706 mg/kg/day | TD50 (rat, strain Fischer 344, females, by gavage, site: liver, lesion: hemangiosarcoma, dosed 102 weeks, study length 104 weeks): 0.457 mg/kg/day | TD50 (rat, strain Fischer 344, females, by gavage, site: liver, lesion: hepatocellular adenoma + hepatoblastoma + hepatocellular carcinoma, dosed 102 weeks, study length 104 weeks): 1.2 mg/kg/day | TD50 (rat, strain Fischer 344, females, by gavage, site: liver, lesion: hepatocellular adenoma + hepatocellular carcinoma, dosed 102 weeks, study length 104 weeks): 1.2 mg/kg/day | TD50 (rat, strain Fischer 344, females, by gavage, site: liver, lesion: hepatocellular adenoma, dosed 102 weeks, study length 104 weeks): 1.63 mg/kg/day | TD50 (rat, strain Fischer 344, females, by gavage, site: thyroid gland, lesion: c-cell adenoma + c-cell adenoma, bilateral, dosed 102 weeks, study length 104 weeks): 0.62 mg/kg/day | TD50 (rat, strain Fischer 344, males, by gavage, site: all sites + liver, lesion: mononuclear-cell leukemia + hemangiosarcoma + hepatocellular adenoma, dosed 71 weeks, study length 71 weeks): 0.0665 mg/kg/day | TD50 (rat, strain Fischer 344, males, by gavage, site: all sites + liver, lesion: mononuclear-cell leukemia + hepatocellular adenoma, dosed 71 weeks, study length 71 weeks): 0.179 mg/kg/day | TD50 (rat, strain Fischer 344, males, by gavage, site: all sites, lesion: mononuclear-cell leukemia, dosed 71 weeks, study length 71 weeks): 0.232 mg/kg/day | TD50 (rat, strain Fischer 344, males, by gavage, site: any site (literature study), lesion: several types, types named in the paper, dosed 71 weeks, study length 71 weeks): 0.0267 mg/kg/day | TD50 (rat, strain Fischer 344, males, by gavage, site: liver, lesion: hemangiosarcoma, dosed 71 weeks, study length 71 weeks): 0.0744 mg/kg/day | TD50 (rat, strain Fischer 344, males, by gavage, site: liver, lesion: hepatocellular adenoma + hepatoblastoma + hepatocellular carcinoma, dosed 71 weeks, study length 71 weeks): 0.584 mg/kg/day | TD50 (rat, strain Fischer 344, males, by gavage, site: liver, lesion: hepatocellular adenoma, dosed 71 weeks, study length 71 weeks): 0.584 mg/kg/day | TD50 (rat, strain Fischer 344, males, by gavage, site: lung, lesion: alveolar/bronchiolar adenoma, dosed 71 weeks, study length 71 weeks): 0.528 mg/kg/day

C=CCOC(=O)CC(C)C
TD50 (mouse, strain B6C3F1, females, by gavage, site: all sites, lesion: malignant lymphoma, histiocytic type + malignant lymphoma, mixed type + malignant lymphoma, lymphocytic type, dosed 103 weeks, study length 106 weeks): 62.8 mg/kg/day | TD50 (mouse, strain B6C3F1, females, by gavage, site: all sites, lesion: malignant lymphoma, histiocytic type, dosed 103 weeks, study length 106 weeks): 238 mg/kg/day | TD50 (mouse, strain B6C3F1, females, by gavage, site: all sites, lesion: malignant lymphoma, mixed type, dosed 103 weeks, study length 106 weeks): 102 mg/kg/day | TD50 (mouse, strain B6C3F1, females, by gavage, site: any site (literature study), lesion: several types, types named in the paper, dosed 103 weeks, study length 106 weeks): 65.5 mg/kg/day | TD50 (mouse, strain B6C3F1, females, by gavage, site: lung, lesion: alveolar/bronchiolar adenoma + alveolar/bronchiolar carcinoma, dosed 103 weeks, study length 106 weeks): 4450 mg/kg/day | TD50 (mouse, strain B6C3F1, males, by gavage, site: any site (literature study), lesion: several types, types named in the paper, dosed 103 weeks, study length 106 weeks): 206 mg/kg/day | TD50 (mouse, strain B6C3F1, males, by gavage, site: gastric mucosa, lesion: squamous-cell papilloma, dosed 103 weeks, study length 106 weeks): 295 mg/kg/day (inactive) | TD50 (rat, strain Fischer 344, females, by gavage, site: any site (literature study), lesion: several types, types named in the paper, dosed 103 weeks, study length 106 weeks): 43.5 mg/kg/day (inactive) | TD50 (rat, strain Fischer 344, males, by gavage, site: all sites, lesion: monocytic leukemia + malignant lymphoma, histiocytic type, dosed 103 weeks, study length 106 weeks): 123 mg/kg/day | TD50 (rat, strain Fischer 344, males, by gavage, site: all sites, lesion: monocytic leukemia, dosed 103 weeks, study length 106 weeks): 149 mg/kg/day | TD50 (rat, strain Fischer 344, males, by gavage, site: any site (literature study), lesion: several types, types named in the paper, dosed 103 weeks, study length 106 weeks): 50.5 mg/kg/day | TD50 (rat, strain Fischer 344, males, by gavage, site: liver, lesion: hepatocellular adenoma + hepatocellular carcinoma + neoplastic nodule, dosed 103 weeks, study length 106 weeks): 264 mg/kg/day | TD50 (rat, strain Fischer 344, males, by gavage, site: preputial gland, lesion: adenoma, NOS + carcinoma, NOS + squamous-cell carcinoma, dosed 103 weeks, study length 106 weeks): 136 mg/kg/day

CCNC(=O)N(C=O)CCN(C)C
TD50 (rat, strain Fischer 344, females, by gavage, site: cervix, lesion: adenocarcinoma, dosed 37 weeks, study length 102 weeks): 5.35 mg/kg/day | TD50 (rat, strain Fischer 344, females, by gavage, site: lung, lesion: one or several types, types not named, dosed 37 weeks, study length 102 weeks): 5.35 mg/kg/day | TD50 (rat, strain Fischer 344, females, by gavage, site: mammary gland, lesion: adenocarcinoma, dosed 37 weeks, study length 102 weeks): 3.39 mg/kg/day | TD50 (rat, strain Fischer 344, females, by gavage, site: mammary gland, lesion: adenoma, dosed 37 weeks, study length 102 weeks): 11.2 mg/kg/day | TD50 (rat, strain Fischer 344, females, by gavage, site: mammary gland, lesion: fibroadenoma, dosed 37 weeks, study length 102 weeks): 0.704 mg/kg/day | TD50 (rat, strain Fischer 344, females, by gavage, site: uterus, lesion: adenoma, dosed 37 weeks, study length 102 weeks): 11.2 mg/kg/day | TD50 (rat, strain Fischer 344, females, by gavage, site: uterus, lesion: endometrial polyp, dosed 37 weeks, study length 102 weeks): 1.41 mg/kg/day | TD50 (rat, strain Fischer 344, males, by gavage, site: lung, lesion: one or several types, types not named, dosed 37 weeks, study length 102 weeks): 2.37 mg/kg/day | TD50 (rat, strain Fischer 344, males, by gavage, site: skin, lesion: keratoacanthoma, dosed 37 weeks, study length 102 weeks): 1.92 mg/kg/day

c1ccc2n[nH]nc2c1
TD50 (mouse, strain B6C3F1, females, in feed, site: any site (literature study), lesion: several types, types named in the paper, dosed 104 weeks, study length 106 weeks): 18900 mg/kg/day | TD50 (mouse, strain B6C3F1, females, in feed, site: lung, lesion: alveolar/bronchiolar adenoma + alveolar/bronchiolar carcinoma, dosed 104 weeks, study length 106 weeks): 3890 mg/kg/day | TD50 (mouse, strain B6C3F1, females, in feed, site: lung, lesion: alveolar/bronchiolar carcinoma, dosed 104 weeks, study length 106 weeks): 4390 mg/kg/day | carcinogen call (mouse, strain B6C3F1, males, in feed, site: any site (literature study), lesion: several types, types named in the paper, dosed 104 weeks, study length 106 weeks): negative (inactive) | TD50 (rat, strain Fischer 344, females, in feed, site: brain, lesion: glioma, NOS, dosed 78 weeks, study length 105 weeks): 20300 mg/kg/day | TD50 (rat, strain Fischer 344, females, in feed, site: liver, lesion: hepatocellular adenoma + hepatocellular carcinoma + neoplastic nodule, dosed 78 weeks, study length 105 weeks): 10100 mg/kg/day | carcinogen call (rat, strain Fischer 344, males, in feed, site: brain, lesion: glioma, NOS + oligodendroglioma, dosed 78 weeks, study length 104 weeks): a | TD50 (rat, strain Fischer 344, males, in feed, site: liver, lesion: hepatocellular adenoma + hepatocellular carcinoma + neoplastic nodule, dosed 78 weeks, study length 104 weeks): 2720 mg/kg/day | TD50 (rat, strain Fischer 344, males, in feed, site: liver, lesion: neoplastic nodule, dosed 78 weeks, study length 104 weeks): 2720 mg/kg/day

O=[N+]([O-])c1ccc2nc[nH]c2c1
TD50 (mouse, strain B6C3F1, females, in feed, site: any site (literature study), lesion: several types, types named in the paper, dosed 78 weeks, study length 95 weeks): 429 mg/kg/day | TD50 (mouse, strain B6C3F1, females, in feed, site: liver, lesion: hepatocellular adenoma + hepatocellular carcinoma + neoplastic nodule, dosed 78 weeks, study length 95 weeks): 354 mg/kg/day | TD50 (mouse, strain B6C3F1, females, in feed, site: liver, lesion: hepatocellular adenoma + hepatocellular carcinoma, dosed 78 weeks, study length 95 weeks): 354 mg/kg/day | TD50 (mouse, strain B6C3F1, females, in feed, site: liver, lesion: hepatocellular carcinoma, dosed 78 weeks, study length 95 weeks): 762 mg/kg/day | TD50 (mouse, strain B6C3F1, females, in feed, site: pituitary gland, lesion: adenoma, NOS + chromophobe adenoma, dosed 78 weeks, study length 95 weeks): 335 mg/kg/day | TD50 (mouse, strain B6C3F1, males, in feed, site: any site (literature study), lesion: several types, types named in the paper, dosed 78 weeks, study length 95 weeks): 1980 mg/kg/day | TD50 (mouse, strain B6C3F1, males, in feed, site: liver, lesion: hepatocellular adenoma + hepatocellular carcinoma + neoplastic nodule, dosed 78 weeks, study length 95 weeks): 392 mg/kg/day | TD50 (mouse, strain B6C3F1, males, in feed, site: liver, lesion: hepatocellular adenoma + hepatocellular carcinoma, dosed 78 weeks, study length 95 weeks): 392 mg/kg/day | TD50 (mouse, strain B6C3F1, males, in feed, site: liver, lesion: hepatocellular carcinoma, dosed 78 weeks, study length 95 weeks): 423 mg/kg/day | carcinogen call (rat, strain Fischer 344, females, in feed, site: any site (literature study), lesion: several types, types named in the paper, dosed 78 weeks, study length 105 weeks): negative (inactive) | carcinogen call (rat, strain Fischer 344, males, in feed, site: any site (literature study), lesion: several types, types named in the paper, dosed 78 weeks, study length 105 weeks): negative (inactive) | TD50 (rat, strain Fischer 344, males, in feed, site: liver, lesion: hepatocellular adenoma + hepatocellular carcinoma + neoplastic nodule, dosed 78 weeks, study length 105 weeks): 8830 mg/kg/day

Reference: PubChem BioAssay AID1745844 (Carcinogenic Potency Database (CPDB), 2022)
